Source: patent US20250197372A1 (priority 2020, published 2025)

Tests used:
Assay type in all cases: biochemical
[1] = biological target: recombinant human GAA (acid alpha-glucosidase) (Homo sapiens, UniProt P10253); experiment: Acid alpha-glucosidase (GAA) assay (4-methylumbelliferyl-alpha-D-pyranoside substrate, fluorescence)
How it was run: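 IC50 from 4-PL curve fit of percent inhibition, based on fluorescence (365/440 nm) of released methylumbelliferone relative to uninhibited enzyme. Compound dilutions and human GAA incubated 60 min, 37 °C, before 20 min substrate reaction at 37 °C, quenched at pH 10.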

[2] = biological target: rat maltase (partially purified alpha-glucosidase from intestinal rat powder); experiment: Intestinal alpha-glucosidase assay, maltose substrate (Glucose GO Kit)
How it was run: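 Enzyme from intestinal rat powder, partially purified, is exposed to compound for 60 min at 37 °C. Disaccharide substrate (maltose or sucrose respectively) then reacts 30 min at 37 °C. Heat-stopped samples are assayed for glucose, and percent inhibition versus concentration gives IC50 via 4-PL.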

[3] = biological target: T1, recombinant alpha-glucosidase II (murine full-length glucosidase II, alpha and beta subunits, Glu 2) (Mus musculus, UniProt Q8BHN3); experiment: Alpha-glucosidase II assay (4-methylumbelliferyl-alpha-D-pyranoside substrate, fluorescence); conditions: Glucosidase 2; read-out: Glu2 IC50
T1 construct: made in house; host or cells: HEK-293T cells transduced with BacMam viruses (75% alpha, 25% beta); protein harvested from culture supernatant
T1 sequence (O08795 15-521): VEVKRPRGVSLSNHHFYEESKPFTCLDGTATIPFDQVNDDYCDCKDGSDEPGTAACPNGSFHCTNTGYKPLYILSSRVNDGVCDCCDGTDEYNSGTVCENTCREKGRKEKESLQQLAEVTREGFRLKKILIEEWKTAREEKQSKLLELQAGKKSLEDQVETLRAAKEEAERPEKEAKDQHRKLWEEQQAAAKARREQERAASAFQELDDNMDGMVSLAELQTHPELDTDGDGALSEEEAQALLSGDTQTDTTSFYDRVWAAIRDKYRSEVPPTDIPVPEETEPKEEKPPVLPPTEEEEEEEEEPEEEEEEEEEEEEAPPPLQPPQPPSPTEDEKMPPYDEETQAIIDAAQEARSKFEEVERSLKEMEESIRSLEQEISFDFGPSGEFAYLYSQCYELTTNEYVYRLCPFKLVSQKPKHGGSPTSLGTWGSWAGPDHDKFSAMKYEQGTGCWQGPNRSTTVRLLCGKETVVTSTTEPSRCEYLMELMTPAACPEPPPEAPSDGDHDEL
T1 sequence (Q8BHN3 33-944): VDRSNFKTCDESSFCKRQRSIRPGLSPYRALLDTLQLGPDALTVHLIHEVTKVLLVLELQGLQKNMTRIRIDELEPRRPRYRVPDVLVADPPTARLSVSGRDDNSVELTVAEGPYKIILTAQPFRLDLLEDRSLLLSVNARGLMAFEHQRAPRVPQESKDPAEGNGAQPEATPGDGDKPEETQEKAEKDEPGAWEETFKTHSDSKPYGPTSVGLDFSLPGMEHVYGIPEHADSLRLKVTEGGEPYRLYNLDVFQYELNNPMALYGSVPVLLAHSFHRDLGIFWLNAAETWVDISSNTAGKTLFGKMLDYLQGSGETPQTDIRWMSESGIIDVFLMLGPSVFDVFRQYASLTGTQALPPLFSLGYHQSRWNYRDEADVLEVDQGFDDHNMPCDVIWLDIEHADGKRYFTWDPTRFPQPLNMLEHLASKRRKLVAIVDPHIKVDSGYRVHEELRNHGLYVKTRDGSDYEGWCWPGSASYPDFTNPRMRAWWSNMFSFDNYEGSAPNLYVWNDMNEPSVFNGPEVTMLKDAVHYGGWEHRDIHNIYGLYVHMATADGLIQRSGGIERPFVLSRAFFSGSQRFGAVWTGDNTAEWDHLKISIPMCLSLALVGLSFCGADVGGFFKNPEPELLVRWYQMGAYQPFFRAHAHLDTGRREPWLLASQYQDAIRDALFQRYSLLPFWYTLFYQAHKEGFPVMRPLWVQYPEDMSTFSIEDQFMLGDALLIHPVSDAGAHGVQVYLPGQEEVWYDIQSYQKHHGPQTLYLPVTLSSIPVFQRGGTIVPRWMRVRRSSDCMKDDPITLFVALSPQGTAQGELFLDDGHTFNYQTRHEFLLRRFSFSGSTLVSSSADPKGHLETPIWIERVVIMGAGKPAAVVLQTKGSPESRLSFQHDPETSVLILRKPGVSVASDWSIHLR

[4] = biological target: T2, recombinant human GBA (beta-glucocerebrosidase) (Homo sapiens, UniProt P04062); experiment: Beta-glucocerebrosidase (GBA, glucosylceramidase) assay (4-methylumbelliferyl-beta-D-pyranoside substrate, fluorescence)
T2 sequence (P04062 40-536): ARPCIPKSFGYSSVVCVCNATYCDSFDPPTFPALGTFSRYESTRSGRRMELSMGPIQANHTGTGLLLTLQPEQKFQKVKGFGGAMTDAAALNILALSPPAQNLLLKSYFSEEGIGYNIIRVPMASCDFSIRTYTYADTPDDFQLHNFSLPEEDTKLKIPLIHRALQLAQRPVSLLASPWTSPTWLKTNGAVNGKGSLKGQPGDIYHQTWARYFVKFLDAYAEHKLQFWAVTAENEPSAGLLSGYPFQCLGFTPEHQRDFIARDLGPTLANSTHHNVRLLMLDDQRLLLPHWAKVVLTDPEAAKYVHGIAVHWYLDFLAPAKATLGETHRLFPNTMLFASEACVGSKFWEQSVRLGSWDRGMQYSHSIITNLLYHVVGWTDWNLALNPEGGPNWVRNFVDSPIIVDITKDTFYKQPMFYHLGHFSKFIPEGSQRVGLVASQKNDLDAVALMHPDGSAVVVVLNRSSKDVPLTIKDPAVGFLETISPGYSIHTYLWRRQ
How it was run: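 IC50 by four-parameter fit of percent inhibition, with product fluorescence (365/440 nm) read after a glycine/NaOH pH 10 stop. Compound and commercial recombinant human enzyme were incubated 60 min at 37 °C before a further 60 min at 37 °C with 4-methylumbelliferyl-beta-D-pyranoside substrate.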

SMILES	IC50 [1]	IC50 [2]	IC50 [3]	IC50 [4]
[N-]=[N+]=Nc1ccc(NCCCCCCN2C[C@H](O)[C@@H](O)[C@H](O)[C@H]2CO)c(C(=O)O)c1 [Compound 1297, 5-azido-2-({6-[(2R,3R,4R,5S)-3,4,5-trihydroxy-2-(hydroxymethyl)piperidin-1-yl]hexyl}amino)benzoic acid]	452 nM	169 nM	97 nM	3520 nM
N#CCc1ccc(NCCCCCCN2C[C@H](O)[C@@H](O)[C@H](O)[C@H]2CO)c([N+](=O)[O-])c1 [Compound 1299, 2-[3-nitro-4-({6-[(2R,3R,4R,5S)-3,4,5-trihydroxy-2-(hydroxymethyl)piperidin-1-yl]hexyl}amino)phenyl]acetonitrile]	32 nM	5 nM	17 nM	3390 nM
N#Cc1ccc(NCCCCCCN2C[C@H](O)[C@@H](O)[C@H](O)[C@H]2CO)c([N+](=O)[O-])c1 [Compound 1304, 3-nitro-4-({6-[(2R,3R,4R,5S)-3,4,5-trihydroxy-2-(hydroxymethyl)piperidin-1-yl]hexyl}amino)benzonitrile]	43 nM	17 nM	22 nM	43 nM
COc1ccc(-c2ccc(CCCN3C[C@H](O)[C@@H](O)[C@H](O)[C@H]3CO)cc2)cc1 [Compound 1305, (2R,3R,4R,5S)-2-(hydroxymethyl)-1-(3-{4′-methoxy-[1,1′-biphenyl]-4-yl}propyl)piperidine-3,4,5-triol]	498 nM	< 10 nM	< 1 nM	7860 nM
COc1ccc(-c2ccc(CN3C[C@H](O)[C@@H](O)[C@H](O)[C@H]3CO)cc2)cc1 [Compound 1306, (2R,3R,4R,5S)-2-(hydroxymethyl)-1-({4′-methoxy-[1,1′-biphenyl]-4-yl}methyl)piperidine-3,4,5-triol]	4570 nM	< 10 nM	44000 nM	> 100000 nM
COCCc1ccc(CCCN2C[C@H](O)[C@@H](O)[C@H](O)[C@H]2CO)cc1 [Compound 1308, (2R,3R,4R,5S)-2-(hydroxymethyl)-1-{3-[4-(2-methoxyethyl)phenyl]propyl}piperidine-3,4,5-triol]	1680 nM	88 nM	125 nM	50900 nM
COc1ccc(CCCCCCCN2C[C@H](O)[C@@H](O)[C@H](O)[C@H]2CO)cc1 [Compound 1309, (2R,3R,4R,5S)-2-(hydroxymethyl)-1-[7-(4-methoxyphenyl)heptyl]piperidine-3,4,5-triol]	263 nM	22 nM	37 nM	2340 nM
COc1ccc(CCCCCN2C[C@H](O)[C@@H](O)[C@H](O)[C@H]2CO)cc1 [Compound 1310, (2R,3R,4R,5S)-2-(hydroxymethyl)-1-[5-(4-methoxyphenyl)pentyl]piperidine-3,4,5-triol]	1190 nM	< 10 nM	78 nM	16900 nM
OC[C@@H]1[C@@H](O)[C@H](O)[C@@H](O)CN1CCCCCCCCC1CNCCO1 (stereo partly drawn) [Compound 1311, (2R,3R,4R,5S)-2-(hydroxymethyl)-1-[8-(morpholin-2-yl)octyl]piperidine-3,4,5-triol]	747 nM	< 10 nM	197 nM	26200 nM
Cc1cc(NCc2ccc(CN3C[C@H](O)[C@@H](O)[C@H](O)[C@H]3CO)cc2)cc(-c2ncco2)c1 [Compound 1315, (2R,3R,4R,5S)-2-(hydroxymethyl)-1-{[4-({[3-methyl-5-(1,3-oxazol-2-yl)phenyl]amino}methyl)phenyl]methyl}piperidine-3,4,5-triol]	440 nM	9 nM	907 nM	> 100000 nM
Cc1cc(NCc2ccc(CN3C[C@H](O)[C@@H](O)[C@H](O)[C@H]3CO)cc2)cc(-n2nccn2)c1 [Compound 1316, (2R,3R,4R,5S)-2-(hydroxymethyl)-1-{[4-({[3-methyl-5-(2H-1,2,3-triazol-2-yl)phenyl]amino}methyl)phenyl]methyl}piperidine-3,4,5-triol]	94 nM	6 nM	194 nM	> 100000 nM
Cc1cc(NCc2ccc(CN3C[C@H](O)[C@@H](O)[C@H](O)[C@H]3CO)cc2)cc(-c2ccco2)c1 [Compound 1317, (2R,3R,4R,5S)-1-{[4-({[3-(furan-2-yl)-5-methylphenyl]amino}methyl)phenyl]methyl}-2-(hydroxymethyl)piperidine-3,4,5-triol]	480 nM	< 1 nM	1200 nM	45100 nM
Cc1cc(NCc2cccc(CN3C[C@H](O)[C@@H](O)[C@H](O)[C@H]3CO)n2)cc(-c2ncccn2)c1 [Compound 1322, (2R,3R,4R,5S)-2-(hydroxymethyl)-1-{[6-({[3-methyl-5-(pyrimidin-2-yl)phenyl]amino}methyl)pyridin-2-yl]methyl}piperidine-3,4,5-triol]	1110 nM	388 nM	32400 nM	99000 nM
Cc1cc(NCc2ccc(CN3C[C@H](O)[C@@H](O)[C@H](O)[C@H]3CO)cc2)cc(-n2ccnn2)c1 [Compound 1323, (2R,3R,4R,5S)-2-(hydroxymethyl)-1-{[4-({[3-methyl-5-(1H-1,2,3-triazol-1-yl)phenyl]amino}methyl)phenyl]methyl}piperidine-3,4,5-triol]	76 nM	11 nM	382 nM	> 100000 nM
OC[C@@H]1[C@@H](O)[C@H](O)[C@@H](O)CN1Cc1cnc(CNc2cc(-c3ncccn3)cc(C3CC3)c2)cn1 [Compound 1329, (2R,3R,4R,5S)-1-{[5-({[3-cyclopropyl-5-(pyrimidin-2-yl)phenyl]amino}methyl)pyrazin-2-yl]methyl}-2-(hydroxymethyl)piperidine-3,4,5-triol]	50 nM	548 nM	2550 nM	82900 nM
Cc1cc(NCc2cnc(CN3C[C@H](O)[C@@H](O)[C@H](O)[C@H]3CO)cn2)cc(-c2ccc[nH]2)c1 [Compound 1330, (2R,3R,4R,5S)-2-(hydroxymethyl)-1-{[5-({[3-methyl-5-(1H-pyrrol-2-yl)phenyl]amino}methyl)pyrazin-2-yl]methyl}piperidine-3,4,5-triol]	90 nM	577 nM	14400 nM	13200 nM
Cc1cc(NCc2cnc(CN3C[C@H](O)[C@@H](O)[C@H](O)[C@H]3CO)cn2)cc(N2CCOCC2)c1 [Compound 1332, (2R,3R,4R,5S)-2-(hydroxymethyl)-1-{[5-({[3-methyl-5-(morpholin-4-yl)phenyl]amino}methyl)pyrazin-2-yl]methyl}piperidine-3,4,5-triol]	165 nM	573 nM	> 100000 nM	> 100000 nM
OC[C@@H]1[C@@H](O)[C@H](O)[C@@H](O)CN1Cc1cccc(CNc2cc(-c3ncccn3)cc(C3CC3)c2)n1 [Compound 1333, (2R,3R,4R,5S)-1-{[6-({[3-cyclopropyl-5-(pyrimidin-2-yl)phenyl]amino}methyl)pyridin-2-yl]methyl}-2-(hydroxymethyl)piperidine-3,4,5-triol]	2180 nM	846 nM	> 100000 nM	> 100000 nM
Cc1cc(NCc2cccc(CN3C[C@H](O)[C@@H](O)[C@H](O)[C@H]3CO)n2)cc(-c2ccco2)c1 [Compound 1334, (2R,3R,4R,5S)-1-{[6-({[3-(furan-2-yl)-5-methylphenyl]amino}methyl)pyridin-2-yl]methyl}-2-(hydroxymethyl)piperidine-3,4,5-triol]	714 nM	224 nM	> 100000 nM	> 100000 nM
Cc1cc(NCc2cccc(CN3C[C@H](O)[C@@H](O)[C@H](O)[C@H]3CO)n2)cc(N2CCOCC2)c1 [Compound 1336, (2R,3R,4R,5S)-2-(hydroxymethyl)-1-{[6-({[3-methyl-5-(morpholin-4-yl)phenyl]amino}methyl)pyridin-2-yl]methyl}piperidine-3,4,5-triol]	10400 nM	9990 nM	> 100000 nM	> 100000 nM
COc1ccc(C#CCCCCCN2C[C@H](O)[C@@H](O)[C@H](O)[C@H]2CO)cc1 [Compound 1338, (2R,3R,4R,5S)-2-(hydroxymethyl)-1-[7-(4-methoxyphenyl)hept-6-yn-1-yl]piperidine-3,4,5-triol]	860 nM	146 nM	109 nM	9440 nM
